The structures appear in SMILES notation.

The text below walks through data of patent US8329218B2, “Unusually stable glasses and methods for forming same” (Wisconsin Alumni Research Foundation, priority 2007, dated 2012).

The nature of data set [1]: DSC of glasses made in a sublimation apparatus. The note with it: vapor deposition by sublimation, 8 mTorr.
Description: A glass container that could be evacuated was used as a sublimation chamber. The lower part of the container held the material to be sublimed (“source material”). A condenser cooled by a circulating coolant was positioned above the source material. At the bottom of the condenser were attached a silicon wafer or aluminum DSC pans, which serves as surfaces for vapor deposition. The source material was heated to sublime by submerging the bottom the sublimation apparatus in an oil bath. The vapor produced by sublimation was deposited on the cooled collecting surfaces. The vacuum maintained during the operation of this device was 8 mTorr. A metal plate was placed over the source material until vapor deposition was to begin, at which time it was withdrawn magnetically. The sublimation rate was controlled by varying the oil bath temperature.
Curve 1 corresponds to a glass prepared by vapor deposition onto a DSC pan held, at approximately Tg−50 K at a rate of ˜0.2 nm/s. Curve 2 corresponds to an ordinary glass, produced by cooling the liquid at a rate of 10 K/min. […] Curve 1 corresponds to a glass prepared by vapor deposition onto a DSC pan at approximately Tg−50 K at a rate of ˜0.4 nm is. […] Curve 2 corresponds to an ordinary glass produced by cooling the liquid at 10 K/min.
The nature of data set [2]: Differential scanning calorimetry of glass stability (onset temperature, fictive temperature, θK). The settings on record: for Tg (onset temperature) of ordinary glass: ordinary glass cooled from the liquid; for enthalpies and Tfic values of vapor-deposited samples relative to ordinary glass: samples prepared by vapor deposition. Format: physicochemical. The text has this: Differential scanning calorimetry (DSC) was used to examine the kinetics and thermodynamics of vapor-deposited samples created by heating crystalline TNB or IMC in a vacuum. To move a sample from the glass to the supercooled liquid, energy must be supplied to the sample. In DSC, this energy is supplied as heat to the system as the temperature is ramped from a temperature below the glass transition into the supercooled liquid regime. For an ordinary glass that is cooled from the melt the amount of energy needed to do this is observed by a change in heat capacity at Tg. […] An endothermic heat characteristic will be observed in these cases, often referred to as an enthalpy overshoot, where the size and temperature of the overshoot indicate the amount of stability.
This scan was continued to above the melting point, after which the sample was cooled at 40 K/min into the glass and then scanned again to yield the leftmost curve. This latter-curve represents the behavior of an ordinary glass of TNB, with Tg=347 K, as defined by the onset temperature; it is consistent with previously reported results for TNB (C. M. Whitaker, R. J. McMahon J. Phys. Chem. 100, 1081 (1996); J. H. Magill, J. Chem. Phys. 47, 2802 (1967)). The DSC instrument was calibrated using an indium standard.
The fictive-temperature (Tfic) of the glasses, as defined below, was calculated in order to quantify the thermodynamic stability of the vapor-deposited materials. Lower Tfic values indicate a lower position on the energy landscape. The enthalpy for TNB and IMC samples, obtained by integrating Cp, is plotted in FIG. 1B. […] The supercooled liquid enthalpy curve was calculated by determining the temperature dependence of the enthalpy between the glass transition and the melting point and extrapolating this dependence to lower temperatures. […] Based upon aging experiments on TNB (D. J. Plazek, J. H. Magill, J. Chem. Phys. 45, 3038 (1966)), it is estimated that it would require at least 40 years of annealing an ordinary glass to match Tfic for the vapor-deposited sample shown in FIG. 1.
The Kauzmann temperature and θK were also calculated. For TNB, Magill estimated TK=270 K (J. H. Magill, J. Chem. Phys. 47, 2802 (1967)). […] In comparison, annealing the ordinary glass at 296 K (θK=0.09) or 328 K (θK=0.22) is relatively ineffective. […] Of annealing achieved θK≦0.17 (A. J. Kovacs, Fortschr Hochpolym-Forsch. 3, 394 (1963)).
A general note: DSC measures the heat that a sample takes up or gives off during a temperature scan.

Data set [3] in a line: Water uptake: weight change as a function of relative humidity (sorption apparatus). The class given is physicochemical. The procedure:
The stable glass was prepared by vapor depositing IMC onto an aluminum substrate using the method described in Example 1, above. The substrate was held at a temperature of 265 K and a deposition rate of 2 Å/s was used. For comparison, two “ordinary” glass samples were also prepared. These were formed by vapor-deposition at 315 K. In addition, water uptake was measured for a crystalline IMC glass. Weight change as a function of relative humidity was measured for the ordinary glasses, stable glass, and crystalline IMC. The multiple curves for a given sample are from cycles where the relative humidity (RH) was stepped up and back down. A TA instruments Q5000SA sorption apparatus was used to induce relative humidity step changes and measure the steady-state weight change response. For the crystalline IMC (lowest curve), at 50% RH less than 0.1% weight change was observed. By contrast: the ordinary glass (uppermost curves) absorbed nearly one weight percent at a RH of 50%. The measured percent weight change observed here matches previous data obtained for ordinary IMC glasses and crystalline IMC by Zografi and coworkers. (See Andronis et al., J. Pharm. Sci. 86, 346 (1997).)

Data set [4] in a line: Quasi-isothermal temperature modulated DSC: transformation of glass to supercooled liquid. Format: physicochemical. The settings on record: ordinary glass; Tanneal 319 K. How it is done: The stable glass was prepared by vapor depositing IMC onto an aluminum substrate using the method described in Example 1, above. The substrate was held at a temperature of 265 K and a deposition rate of 2 Å/s was used. For comparison, an “ordinary” glass sample was also prepared by melting the vapor-deposited IMC glass and cooling the resulting liquid at a rate of 40 K/min.
The kinetic stability of the stable IMC glass was explored in quasi-isothermal temperature modulated differential scanning calorimetry (qi-TMDSC) experiments. In these experiments a TA instruments Q2000 DSC was used. After vapor deposition, the samples were placed in the DSC at room temperature. A temperature jump from room temperature to the annealing-temperature was carried out. At room temperature the sample was a glass, and the annealing temperature was chosen such that it was higher than the ordinary glass Tg (315 K). The temperature jump defines t=0. In addition to the instantaneous temperature jump a small sinusoidal temperature fluctuation was imposed (amplitude: 0.5: K, period: 60 seconds) which allows; one to measure the reversing heat capacity as a function of time.

Data set [5] in a line: Density of vapor-deposited films by x-ray reflectivity. The class given is physicochemical. The note with it: deposition at 296 K. An excerpt:
The present vapor-deposition methods can also create unusually dense glasses. The ratio of the density of vapor-deposited TNB (ρVD) to that of the ordinary glass (ρo, prepared by cooling from the liquid), increases as the deposition temperature is lowered toward 0.85 Tg (FIG. 2). Also shown as the solid line is a prediction of the density if vapor-deposition produced an equilibrium supercooled liquid at the deposition temperature (D. J. Plazek, J. H. Magill, J. Chem. Phys. 45, 3038 (1966)). For this range of deposition temperatures, the samples nearly achieve this upper bound for density. If a fictive temperature is defined based upon density, deposition at 296 K produces Tfic≈300 K, slightly lower than the fictive temperature based upon the enthalpy. Fictive temperatures based on densities can be determined from FIG. 2, by horizontally shifting the points to overlap with the line shown.
The data in FIG. 2 were determined from x-ray reflectivity measurements made on as-prepared films of TNB and on the same films after thermal equilibration above Tg. All x-ray data was taken at room temperature. […] Since the area of the film was the same before and after annealing, the ratio of the densities equals the inverse of the ratio of the thicknesses, and this is reported in FIG. 2. […]

The nature of data set [6]: Neutron reflectivity of interdiffusion in h-TNB/d-TNB multilayer films during annealing. The class given is physicochemical. The procedure: Neutron reflectivity was used to characterize diffusion in ordinary and stable glasses of TNB. The high spatial resolution and large contrast in the scattering length of neutrons for hydrogen and deuterium nuclei make this an excellent technique for quantifying molecular motion. The neutron reflectivity experiments were conducted at the NIST Center for Neutron Research at the National Institute of Standards and Technology (NCNR-NIST). The NG7 horizontal reflectometer utilized a 4.76 Å collimated neutron beam, with a wavelength divergence of 0.18 Å. The angular divergence of the beam was varied through the reflectivity scan and this provided a relative q resolution Δq/q=0.04 (q=4π sin θ/λ, where θ is the incident and final angle with respect to the surface of the film, and where λ is the neutron wavelength).
For the neutron reflectivity measurements, multilayer thin films of protio TNB (h-TNB) and deuterio TNB (d-TNB) were deposited onto 76-mm-diameter, 3-mm-thick silicon-wafers (Wafer World and Virginia Semiconductor), as described in S. F. Swallen, et al., J. Chem. Phys. 124, 184501 (2006). The silicon was used as received, retaining the native oxide coating. The deposition rate was typically 0.1 nm/s. Prior to deposition, the substrate was spin-coated with a 10-nm polystyrene layer (Polymer Source, ˜10^6 g/mol), which acted to minimize crystallization and dewetting of the TNB film during annealing. The polystyrene was made from a mixture of protio and perdeuterio chains, in order, to approximately match the neutron scattering length density of the first h-TNB layer. Following deposition, the samples were slowly cooled and held at room temperature for 1 to 5 days before neutron reflectivity measurements were obtained. The specular reflectivity R was measured as a function of beam angle relative to the sample surface. This value, multiplied by q^4 for clarity, is plotted as a function of the wavevector q. Reflectivity curves for samples vapor-deposited at different temperatures display diffraction peaks; as expected for the symmetric multi-layer samples, only odd diffraction orders are, present. For samples deposited at low temperature, diffraction can be observed up to the 13th order, indicating very sharp h-TNB/d-TNB interfaces. (S. F. Swallen et al; Science 315, 353 (2.007)). […]
FIG. 4A illustrates the behavior of an ordinary glass annealed near Tg; as shown elsewhere (S. F. Swallen et al., J. Chem. Phys. 124, 184501 (2006)), interdiffusion in this sample is characteristic of the equilibrium liquid. […] The magnitude of this stability can be quantified in terms of the equilibrium structural relaxation time τα, known to be 250 s at 342 K (R. Richert, K. Duvvuri, L.-T. Duong, J. Chem. Phys. 118, 1828 (2003)). […]

The conditions of data set [7]: estimated by Magill; cited from earlier work.
The conditions of data set [8]: at 342 K; cited from earlier work.

As to `CCC1(c2ccccc2)C(=O)NC(=O)NC1=O` [phenobarbital], in data set [1], the “stability of glass made in sublimation apparatus” value is “low fictive temperatures”.

In the case of `COc1ccc2c(c1)c(CC(=O)O)c(C)n2C(=O)c1ccc(Cl)cc1` [IMC, indomethacin], the “Tg (onset temperature) of ordinary glass” value in data set [2] was 315 K. In data set [2], the “enthalpies and Tfic values of vapor-deposited samples relative to ordinary glass” value was “considerably lower”. The “weight change (water uptake)” value was “less than 0.1%” in data set [3] (crystalline, 50% RH); “one” in data set [3] (ordinary glass (vapor-deposited at 315 K), RH of 50%); 0.15 weight percent in data set [3] (stable glass (vapor-deposited at 265 K, 2 Å/s), relative humidity of 50%). Also, the “water uptake of stable glass relative to ordinary glass” value in data set [3] (relative humidity of 50%) is recorded as “one sixth”. Moreover, the “response to temperature jump (transformation to supercooled liquid)” value in data set [4] is listed as “nearly instantaneous”.

For the molecule `c1ccc2cc(-c3cc(-c4cccc5ccccc45)cc(-c4cccc5ccccc45)c3)ccc2c1` [TNB, 1,3-bis-(1-naphthyl)-5-(2-naphthyl)benzene], the “annealing time of an ordinary glass required to match Tfic of the vapor-deposited sample” value in data set [2] (estimated from aging experiments) is “at least 40 years”. For the same molecule, in data set [2] (glass vapor-deposited onto substrate at 296 K, DSC heating 10 K/min), the onset temperature stood at 363 K. Also, the θK in data set [2] (ordinary glass annealed at 296 K) is listed as 0.09; in data set [2] (ordinary glass annealed at 328 K), 0.22; in data set [2] (vapor deposition at 296 K (0.85Tg)), 0.43. Also, the “Tg (onset temperature) of ordinary glass” value in data set [2] is recorded as 347 K. In addition, the “enthalpies and Tfic values of vapor-deposited samples relative to ordinary glass” value in data set [2] is listed as “considerably lower”. Further, in data set [5], the “Tfic (fictive temperature based upon density)” value is on record as “≈ 300 K”. Moreover, the “interdiffusion of h-TNB/d-TNB during annealing” value was “no detectable interdiffusion occurred” in data set [6] (deposited at 296 K, 16 hours of annealing at 342 K) and “substantial interfacial broadening had occurred” in data set [6] (deposited at 330 K, 8 hours of annealing at 342 K). In data set [6] (sample deposited at 0.85Tg, annealed at 342 K), the “induction time before diffusion” value is reported as “exceeds 200 τα”. The surface diffusion coefficient in data set [6] (vapor-deposited at 296 K, 0.1 nm/sec, order-of-magnitude estimate) was 5×10^−16 cm^2/sec. Also, in data set [7], the “Kauzmann temperature TK” value is recorded as 270 K. The “equilibrium structural relaxation time τα” value in data set [8] is on record as 250 s.
